In patent publication US20260318831A1 (University of Cincinnati, priority 2023, published 2026):

Tests used:
[1] = test system: HeLa cells; test: Confocal imaging of PyQPMe uptake by endocytosis; type: cell-based
Experimental: In some aspects, the probes of the present disclosure can be administered to living cells, either in vitro or in vivo. To take advantage of the absorption and emission spectra of PyQPMe, this probe was administered in high-resolution microscopy for living cells. The toxicity of PyQPMe was examined at first before characterizing its imaging properties. Cell Counting Kit-8 (CCK-8) was used to investigate the viability of HeLa cells stained with PyQPMe. […] Next, PyQPMe was characterized by Leica Stellaris Confocal Microscope in the LIGHTNING module for high-resolution imaging. […] The signal tended to be endolysosomes because endolysosomes have a low pH range from 4.7 to 6.3. […] Since low temperatures can inhibit endocytosis, experiments at a lower temperature were performed.
(§1) Leica Stellaris 8 Confocal imaging. High-resolution images were acquired on a commercial Leica Stellaris 8 Confocal Microscope under LIGHTNING mode. Laser powers were set at 10% intensity for 405 nm and 640 nm channels. The objective was 63×/1.4. High-resolution images were captured from the randomly selected field of view and analyzed with Leica LAS X and ImageJ software. All the images were exported on the Auto scale of the Leica LAS X software. Cells were seeded on glassed-bottomed cell dishes (MatTek) for 24 hours. Cells stained with PyQPMe (20 nM, 10 min) were treated with Wortmannin (1 μM, 24 h), CCCP ([…], 24 h), rapamycin (0.5 μM, 24 h), chloroquine (25 μM, 30 min), and NH4Cl (50 mM, 30 min). All PCC values were analyzed in the CellProfiler.

[2] = test system: HeLa cells; test: Background fluorescence / signal-to-noise comparison with LysoTracker Red; type: cell-based; conditions: compared with LTR, same imaging conditions
From the text: Since PyQPMe has a large Stokes shift and strong fluorescence intensity, it can effectively reduce the background noise caused by excitation light and microenvironments. To illustrate this merit, the commercial lysosome dye (LysoTracker Red, LTR) was selected for comparison. Two different regions of the background were randomly chosen in each fluorescence image and plotted their 3D fluorescence intensity distribution maps, as shown in FIG. 4E.
as §1

[3] = UV-visible absorption of PyQPMe in aqueous buffers pH 4.0-8.0; type: physicochemical
From the text: (§2) In some aspects, the fluorescence of the probe changes as the pH of an endolysosome changes, such as between a pH range of about 8.0 to about 2.0. With the designed probe PyQPMe in hand, its UV-visible absorption was screened in aqueous buffers with a pH range of 8.0 to 4.0. […] Simultaneously, a new absorption maximum at 447 nm (ε=27,264 M^−1 cm^−1) rises with its tail exceeding 600 nm in pH 4.0 buffer solution. […] In addition, the fluorescence intensities of PyQPMe used for different imaging channels of the microscope were compared, where the wavelengths of 500 nm and 645 nm represent the green and red channels, respectively. When the buffer solution is much more acidic, the fluorescence intensity ratio of I645 nm/I500 nm is higher than 1 (FIG. 2C), indicating red color dominates the fluorescence of PyQPMe. Conversely, with increasing the pH value, green fluorescence light is becoming the predominant color for imaging.
(§3) Phosphate buffer solution. A series of standard pH buffer solutions were prepared by mixing 0.2 M Na2HPO4·7H2O, 0.2 M KH2PO4, and 0.2 M H3PO4 with varied volume ratios, and the pH values were measured by using a Mettler Toledo pH-meter.
(§4) Absorption and emission measurements. 3.0 mL phosphate buffer solution and 6.44 μL probe stock solution (4.66 mM) were mixed well, and an appropriate portion of the solution was transferred to a quartz cell with 1 cm optical length to collect the absorption spectra on an Agilent Cary 453 spectrophotometer. The fluorescence spectra were recorded on a HORIBA Fluorolog QM spectrofluorometer.

[4] = Fluorescence emission of PyQPMe in buffer solutions with different pH; type: physicochemical
From the text: as §2
Next, the effect of potential biochemical species on the fluorescence intensity of PyQPMe in both pH 3.0 and 8.2 buffer solutions was investigated. […] Fluorescence spectra of PyQPMe in various solvents with different polarities were also obtained. […] Furthermore, the photostability of PyQPMe was investigated under different pH conditions. […] Taken together, the above photophysical results identify that PyQPMe is a pH-sensitive probe, well suited for studying endolysosome dynamics via high-resolution imaging techniques.
as §3, §4
Fluorescence reversibility of PyQPMe. The pH of a PyQPMe solution between pH 3.0 and pH 8.5 was adjusted back and forth by adding 2.0 M KOH or 3.0 M HCl, which was monitored by a Mettler Toledo pH meter.

[5] = test system: endolysosomes in HeLa cells; test: Dual-channel confocal imaging of PyQPMe-stained endolysosomes, co-stained with LTDR; type: cell-based
Experimental: Next, imaging studies of PyQPMe were performed under a dual channel mode with the same excitation of 405 nm (green channel, emission range of 470-530 nm; red channel, emission range of 610-680 nm). Due to the strong green emission properties of PyQPMe over a wide pH range, many puncta fluorescence appeared throughout the cell in the green channel image (FIG. 3A). While in the red channel image, there is less puncta fluorescence in the cell because PyQPMe only emits red light at pH values below 6. Therefore, this imaging property of PyQPMe at different channels can guide one to track different stages of endocytosis. Images were randomly zoomed in and their fluorescence intensity was compared. […] Further, the average diameter of PyQPMe red spots is around 0.6 μm, which is in line with the reported size of lysosomes. To further verify the targeting ability of PyQPMe, the cells were co-stained with commercial lysosome dye Lyso-Tracker Deep Red (LTDR) and imaged under a deep red channel (excitation of 640 nm, emission range of 690-740 nm).
as §1

For `CN1CCN(c2ccc(/C=C/c3ccc4cc(-c5ccncc5)ccc4[n+]3C)cc2)CC1` [PyQPMe, (E)-1-methyl-2-(4-(4-methylpiperazin-1-yl)styryl)-6-(pyridin-4-yl)quinolin-1-ium], the “fluorescence signal inside HeLa cells at high concentration” value ([1]; 2 μM PyQPMe) was “same fluorescence signal inside HeLa cells could be observed”, the “endolysosomes detected at low temperature” value ([1]; 4° C. vs 37° C.) was “Fewer endolysosomes were detected” and the “fluorescence in HeLa cells” value ([1]; 405 nm excitation, 10 min incubation) was “punctate fluorescence signals in the cytoplasm”. For the same compound, the “background fluorescence of confocal images” value [2] was “significantly reduced”, the signal-to-noise ratio [2] was “better than that of LTR” and the pKa ([3]; aqueous buffers, from absorption at 394 and 447 nm, pH 8.0 to 4.0, read-out: apparent pKa value) was about 5. The absorption maximum ([3]; neutral condition) was 394 nm, the “ε at absorption maximum 394 nm” value ([3]; neutral condition) was 34,147 M^−1cm^−1 and the new absorption maximum ([3]; pH 4.0 buffer solution) was 447 nm. For the same compound, the “ε at absorption maximum 447 nm” value ([3]; pH 4.0 buffer solution) was 27,264 M^−1 cm^−1, the maximum emission peak ([4]; 405 nm excitation, neutral solution) was 510 nm and the new emission peak ([4]; 405 nm excitation, pH decreased from 8.0 to 4.0) was 650 nm. The Stokes shift ([4]; acid solution) was “greater than 200 nm”, the “reversibility of emission spectra” value ([4]; between pH 8.5 and pH 3.0) was “excellent reversibility” and the “cut-off pH for the red to green fluorescence intensity ratio” value ([4]; from FIG. 2C) was 5-6. For the same compound, the “fluorescence intensity ratio I645 nm/I500 nm” value ([4]; much more acidic buffer solution) was “higher than 1”, the quantum yield ([4]; pH 4.0 buffer solution) was 0.23% and the “fluorescence over pH window” value ([4]; pH 8.0 to 4.0) was “remains fluorescent within the entire pH window”. For the same compound, the “red shift of emission” value ([4]; pH decreased from 8.0 to 4.0) was 140 nm, the “emission intensity ratio I510 nm/I650 nm against pH” value ([4]; pH titration curve) was “decent linear relationship” and the “effect of solvent polarity on fluorescence” value ([4]; various solvents with different polarities) was “polarity has no effect on the fluorescence”. For the same compound, the “ratio of red to green fluorescence intensity, early endosomes” value ([5]; ex 405 nm, early endosomes) was “very low ratio of red to green fluorescence intensity”, the “ratio of red to green fluorescence intensity, late endosomes/lysosomes” value ([5]; ex 405 nm, late endosomes/lysosomes) was “higher than 1” and the “PCC with LTDR, green channel” value ([5]; green channel particles vs deep red channel of LTDR) was 0.46. The “average diameter of red spots” value ([5]; red channel) was “around 0.6 μm”, the “Pearson correlation coefficient (PCC) with LTDR, red channel” value ([5]; red channel puncta vs deep red channel of LTDR) was “about 0.70” and the “pH below which red light is emitted” value ([5]; red channel, 610-680 nm) was “below 6”.
